# According to US20120237552A1, “Peptoid Agonists of Nerve Growth Factor and Their Use as Medicaments” (priority 2009, published 2012):
# Entries after “also recorded” stand apart in the source; their conditions may differ.
# Legend:
# RN22 cells = assay: RN22 cell survival under CuSO4 stress (MTT); type: cell-based, rat; settings: CuSO4 150 μM, 24 h, peptoids 1 ng/ml-10 μg/ml; compared with NGF 100 ng/ml
# Protocol: The library was also tested to assess their capacity to promote cell survival of myelin producing cells. To delineate p75 signalling independent of TrkA, we used a rat schwannoma cell line (RN22) expressing p75, but not TrkA, (Gentry et al., 2000).
# The rat schawnnoma cell line RN22 was cultured in 5% CO2 at 37° C. in Dulbecco's modified Eagle's medium (DMEM) with 10% fetal bovine serum (FBS) and penicillin/streptomycin.
# RN22 cells were plated at 20,000 cells/well on a 24-well plate in DMEM alone and after allowing the cells to adhere for 3 days, cupper sulphate (CuSO4) (150 μM) was added with or without NGF (100 ng/ml) or the peptoids N35-4-8C, N6-4-17C and N35-4-17C at different concentrations (1 ng/ml-10 μg/ml) to generate stress and cell death. After 24 h cell viability was studied by determining the amount of yellow MTT (Sigma) that was reduced to insoluble purple formazan. After removing the medium, the water-insoluble formazan was solubilised with DMSO (Sigma), and the dissolved material was measured spectrophotometrically at a wavelength of 570 nm, subtracting the background at 650 nm (Frade, 2005).
# C57BL/6 EAE mice = assay: Experimental autoimmune encephalomyelitis (EAE) clinical score; type: in vivo; settings: daily intraperitoneal, day 0 to day 25
# Protocol: Trials were approved by the Parc Cientific de Barcelona Committee on Animal Care. Female C57BL/6 mice from Harlan (8-12 weeks old) were immunized subcutaneously in both hind pads with 300 μg of myelin oligodendrocyte glycoprotein (MOG) peptide 35-55 (Spikem, Firenze) emulsified with 50 μg of Mycobacterium tuberculosis (H37Ra strain; Difco, Detroit, Mich.) in incomplete Freund's adjuvant (IFA) as previously described (Adams et al. 2007). Mice were intraperitoneally injected with Pertussis toxin (Sigma)(500 ng) at the time of immunization and 2 days later. Animals were weighted and inspected for clinical signs of disease on a daily basis by a blinded observer. Disease severity of EAE was assessed according to the following scale: 0=normal; 0.5=mild limp tail; 1=limp tail; 2=mild parapesis of the hind limbs, unsteady gait; 3=moderate parapesis, voluntary movements still possible; 4=paraplegia or tetraparesis; 5=moribund state. Data shown for the clinical studies are representative of two independent experiments performed with the indicated number of animals (Moreno et al., 2006).
# The agonist molecules selected for the animal studies, N35-4-8C, N6-4-17C and N35-4-17C, were prepared in water with 5% DMSO. Animals were treated with the agonist molecule (25, 50 and 100 mg/kg) or placebo (water+5% DMSO) through daily intraperitoneal injection starting after immunization. At the end of the study, mice were anesthetized and perfused intracardially with 4% of paraformaldehyde in 0.1M phosphate buffer (pH 7.6). Brains, spinal cords and spleens were dissected and either fixed or frozen until use. Serum was obtained from all animals included in the study, and transaminases levels were measured.
# In order to evaluate the effects of the NGF-like peptoids “in vivo”, we studied the effect of the NGF-mimetic peptoids in the animal model of MS. C57BL/6 mice immunized with MOG35-55 peptide were treated daily with N35-4-8C, N6-4-17C and N35-4-17C intraperitoneally from day 0 to day 25 at a different concentrations of the compound. N35-4-8C was tested at 3 different concentrations selected in base to previous experiments using agonist molecules in animal models: 25 mg/kg, 50 mg/kg and 100 mg/kg. […] N35-4-17C was also tested at the same concentrations. […] Moreover, the treatment had higher clinical scores with a clear worsening in the progression of the disease (FIG. 4C).
# [1] = test system: splenocytes isolated from naïve C57BL/6 mice; assay: Splenocyte proliferation assay (MOG stimulated); type: cell-based; settings: MOG 10 μg/ml, splenocytes cultured 2 hours with compound before MOG, p<0.05
# Protocol: FIG. 6 depicts effects of N35-4-8C on the peripheral immune response during EAE. […] Splenocytes were cultured for 2 hours with N35-4-8C before MOG addition. Data are means±standard error. *p<0.05 with respect to cells treated with MOG only. FIG. 6B: Gene expression profile of cytokines and inducible nitric oxide synthase (iNOS) assayed by quantitative reverse transcriptase-polymerase chain reaction (RT-PCR) in the spleen of placebo and treated animals at the end of the experiment. Data are expressed as fold change in gene expression levels in the treated groups compared with untreated controls. *p<0.05. IFN=interferon; IL=interleukin; TNF=tumor necrosis factor.
# Splenocytes from naïve, non immunized C57BL/6 mice were obtained for in vitro assessment of the effect of N35-4-8C in cell proliferation. Splenocyte proliferation assay was performed as described previously (Martinez-Forero et al., 2008).
# [2] = test system: TNFα, IL2, iNOS gene expression; assay: Cytokine and iNOS gene expression in spleen of EAE mice (quantitative RT-PCR); type: in vivo; settings: end of the experiment, treated vs placebo
# Protocol: Brains and spinal cords from mice obtained at the time of death were homogenized in RNA lysis buffer. Total RNA was extracted using the RNeasy Mini Kit (Qiagen, Chatwworth, Calif.) isolation system, including DNase treatment using the RNase-Free DNase Set (Quiagen). Total RNA (35 μg) was reverse transcribed using the Reverse Transcription System (High Capacity cDNA Archive Kit; Applied Biosystems, Foster City, Calif.). The real time reaction was conducted at 25° C. for 10 minutes, followed by 37° C. for 2 hours, and finally stored at 4° C. Primers and target-specific fluorescence-labeled TaqMan probes were purchased from Applied Biosystems (TaqMan Gene Expression assays). We used the TaqMan Universal Master Mix (Applied biosystems). Amplification of complementary DNA was performed on a DNA Engine Opticon 2 Real-Time System (MJ Research, Watertown, Mass.) using 0.9 μM for each primer and 0.25 μM for the probe and 20 ng complementary DNA. The reaction conditions were an initial 2 minutes at 50° C., followed by 10 minutes at 95° C. and 40 cycles of 15 seconds at 95° C. and 1 minute at 60° C. Each sample was run in triplicate, and in each plate the target and the endogenous control were amplified in different wells. The expression of the gene tested was quantified relative to the level of the housekeeping gene 18rRNA (Palacios et al., 2008).
# To assess which was the effect of this compound in the peripheral immune response, the proliferative response against the immunizing antigen (MOG) in splenocytes of naïve animals and the cytokine profile in spleen cells from placebo and treated animals were evaluated. […] Gene expression of interleukin2 (IL2), Interferon γ (IFNγ), tumor necrosis factor α (TNFα), inducible nitric oxide synthase (iNOS) and interleukin 10 (IL10) was investigated by quantitative reverse transcriptase PCR at the end of the experiment in splenocytes from placebo and treated animals.
smiles,measurement,setting,value
"CC(C)CCN(CC(=O)N(CCCN1CCCC1=O)CC(N)=O)C(=O)CNCCc1ccccc1F [N35-4-8C, [N-(2-(2′-Fluorophenyl)ethyl)glycyl]-[N-(3-methylbutyl)glycyl]-N-[3-(2′-oxopyrrolidinyl)propyl]glycinamide]","survival of RN22 cells (cell viability, MTT)",RN22 cells,promote survival of RN22 cells
same,EAE clinical severity,C57BL/6 EAE mice; 25 mg/kg,no effect in disease clinical severity
same,EAE clinical severity,C57BL/6 EAE mice; 50 mg/kg,an effect but more moderate
same,EAE clinical severity,C57BL/6 EAE mice; 100 mg/kg,almost a complete prevention of EAE; also recorded: prevents EAE
same,MOG specific proliferative response of splenocytes,[1],significantly lower; also recorded: inhibits the proliferation of splenocytes
same,gene expression of IL2 in spleen,[2],significant decrease
same,gene expression of TNFα in spleen,[2],significant decrease
same,gene expression of iNOS in spleen,[2],significant decrease
